Results: ChEMBL document CHEMBL6134780, “Halogenated retinoid derivatives as dual RARα and RXRα modulators for treating acute promyelocytic leukemia cells” (Eur J Med Chem, 2024)
The source made the active and inactive calls. The calls are words filed in the database; no cut-off is given here.

Legend:
NB-4 [1] = assay: Cell cycle arrest in human NB4 cells assessed as accumulation of cells at G2/M phase at higher concentration by DAPI staining based flow cytometric analysis; type: functional
ATRA-resistant NB4-LR2 [2] = assay: Cell cycle arrest in human ATRA-resistant NB4-LR2 cells assessed as accumulation of cells at G2/M phase at higher concentration by DAPI staining based flow cytometric analysis; type: functional
ATRA-resistant NB4-LR2 [3] = assay: Cell cycle arrest in human ATRA-resistant NB4-LR2 cells assessed as accumulation of cells at G2/M phase at 2 uM incubated for 3 to 12 hrs by DAPI staining based flow cytometric analysis; type: functional; settings: time 3-12 hrs
NB-4 [4] = assay: Cell cycle arrest in human NB4 cells assessed as accumulation of cells at S phase at 0.5 uM incubated for 24 hrs by DAPI staining based flow cytometric analysis (reference value: 26 %); type: functional
NB-4 [5] = assay: Cell cycle arrest in human NB4 cells assessed as accumulation of cells at G2/M phase at 0.5 uM incubated for 24 hrs by DAPI staining based flow cytometric analysis (reference value: 23 %); type: functional
NB-4 [6] = assay: Cell cycle arrest in human NB4 cells assessed as accumulation of cells at S phase at 1 uM incubated for 24 hrs by DAPI staining based flow cytometric analysis (reference value: 26 %); type: functional
NB-4 [7] = assay: Cell cycle arrest in human NB4 cells assessed as accumulation of cells at S phase at 2 uM incubated for 24 hrs by DAPI staining based flow cytometric analysis (reference value: 26 %); type: functional
NB-4 [8] = assay: Cell cycle arrest in human NB4 cells assessed as accumulation of cells at G2/M phase at 2 uM incubated for 24 hrs by DAPI staining based flow cytometric analysis (reference value: 23 %); type: functional
[9] = Cell cycle arrest in human ATRA-resistant NB4-LR2 cells assessed as accumulation of cells at G2/M phase at 0.5 uM incubated for 24 hrs by DAPI staining based flow cytometric analysis (reference value: 25 %); type: functional
[10] = Cell cycle arrest in human ATRA-resistant NB4-LR2 cells assessed as accumulation of cells at G0/G1 phase at 1 uM incubated for 24 hrs by DAPI staining based flow cytometric analysis (reference value: 42 %); type: functional
[11] = Cell cycle arrest in human ATRA-resistant NB4-LR2 cells assessed as accumulation of cells at sub-G1 phase at 1 uM incubated for 24 hrs by DAPI staining based flow cytometric analysis (reference value: 12 %); type: functional
[12] = Cell cycle arrest in human ATRA-resistant NB4-LR2 cells assessed as accumulation of cells at sub-G1 phase at 2 uM incubated for 24 hrs by DAPI staining based flow cytometric analysis (reference value: 12 %); type: functional
NB-4 [13] = assay: Cell cycle arrest in human NB4 cells assessed as accumulation of cells at G0/G1 phase at 2 uM incubated for 3 hrs by DAPI staining based flow cytometric analysis (reference value: 56 %); type: functional
NB-4 [14] = assay: Cell cycle arrest in human NB4 cells assessed as accumulation of cells at S phase at 2 uM incubated for 3 hrs by DAPI staining based flow cytometric analysis (reference value: 20 %); type: functional
NB-4 [15] = assay: Cell cycle arrest in human NB4 cells assessed as accumulation of cells at G2/M phase at 2 uM incubated for 3 hrs by DAPI staining based flow cytometric analysis (reference value: 21 %); type: functional
NB-4 [16] = assay: Cell cycle arrest in human NB4 cells assessed as accumulation of cells at G2/M phase at 2 uM incubated for 6 hrs by DAPI staining based flow cytometric analysis (reference value: 21 %); type: functional
[17] = Cell cycle arrest in human ATRA-resistant NB4-LR2 cells assessed as accumulation of cells at G2/M phase at 2 uM incubated for 3 hrs by DAPI staining based flow cytometric analysis (reference value: 15 %); type: functional
[18] = Cell cycle arrest in human ATRA-resistant NB4-LR2 cells assessed as accumulation of cells at G0/G1 phase at 2 uM incubated for 6 hrs by DAPI staining based flow cytometric analysis (reference value: 57 %); type: functional
[19] = Cell cycle arrest in human ATRA-resistant NB4-LR2 cells assessed as accumulation of cells at sub-G1 phase at 2 uM incubated for 12 hrs by DAPI staining based flow cytometric analysis (reference value: 9 %); type: functional
NB-4 [20] = assay: Cell cycle arrest in human NB4 cells transfected with pLVX-shRNA2-negative control assessed as accumulation of cells at G2/M phase at 1 uM incubated for 12 hrs by DAPI staining based flow cytometric analysis (reference value: 24 %); type: functional
NB-4 [21] = assay: Cell cycle arrest in human NB4 cells transfected with pLVX-shRNA2-negative control assessed as accumulation of cells at sub-G1 phase at 2 uM incubated for 12 hrs by DAPI staining based flow cytometric analysis (reference value: 4 %); type: functional
NB-4 [22] = assay: Cell cycle arrest in human NB4 cells transfected with pLVX-shRXRalpha plasmid assessed as accumulation of cells at G0/G1 phase at 2 uM incubated for 12 hrs by DAPI staining based flow cytometric analysis (reference value: 53 %); type: functional
NB-4 [23] = assay: Cell cycle arrest in human NB4 cells transfected with pLVX-shRXRalpha plasmid assessed as accumulation of cells at G2/M phase at 2 uM incubated for 12 hrs by DAPI staining based flow cytometric analysis (reference value: 17 %); type: functional
NB-4 [24] = assay: Cell cycle arrest in human NB4 cells transfected with pLVX-shRXRalpha plasmid assessed as accumulation of cells at sub-G1 phase at 2 uM incubated for 12 hrs by DAPI staining based flow cytometric analysis (reference value: 10 %); type: functional
NB-4 [25] = assay: Cell cycle arrest in human NB4 cells transfected with pLVX-shPML-RARalpha plasmid assessed as accumulation of cells at S phase at 2 uM incubated for 12 hrs by DAPI staining based flow cytometric analysis (reference value: 19 %); type: functional
ATRA-resistant NB4-LR2 [26] = assay: Cell cycle arrest in human ATRA-resistant NB4-LR2 cells transfected with pLVX-shRXRalpha assessed as increase in cyclin B1 expression at 1 uM incubated for 12 hrs by Western blot analysis; type: functional, cell-based
NB-4 [27] = assay: Induction of apoptosis in human NB4 cells assessed as late apoptotic cells at 1 uM incubated for 24 hrs by Annexin V-FITC/PI staining based flow cytometric analysis (reference value: 2.23 %); type: functional
[28] = Induction of apoptosis in human ATRA-resistant NB4-LR2 cells assessed as early apoptotic cells at 1 uM incubated for 24 hrs by Annexin V-FITC/PI staining based flow cytometric analysis (reference value: 1.41 %); type: functional
[29] = Cell cycle arrest in human ATRA-resistant NB4-LR2 cells assessed as accumulation of cells at S phase at 1 uM incubated for 12 hrs by DAPI staining based flow cytometric analysis (reference value: 12 %); type: functional

Cc1cc2c(cc1C(=O)/C(Br)=C\c1ccc(C(=O)O)cc1)C(C)(C)CCC2(C)C
Activity (NB-4 [1]): Active | Activity (ATRA-resistant NB4-LR2 [2]): Active | Activity (ATRA-resistant NB4-LR2 [3]): Active

Cc1cc2c(cc1C(=O)/C(Br)=C/c1ccc(C(=O)O)cc1)C(C)(C)CCC2(C)C
Activity (NB-4 [4]): 10% | Activity (NB-4 [5]): 26% | Activity (NB-4 [6]): 9% | Activity (NB-4 [7]): 19% | Activity (NB-4 [8]): 37% | Activity [9]: 33% | Activity [10]: 32% | Activity [11]: 20% | Activity [12]: 21% | Activity (NB-4 [13]): 48% | Activity (NB-4 [14]): 21% | Activity (NB-4 [15]): 28% | Activity (NB-4 [16]): 40% | Activity [17]: 33% | Activity [18]: 45% | Activity [19]: 32% | Activity (NB-4 [20]): 54% | Activity (NB-4 [21]): 7% | Activity (NB-4 [22]): 40% | Activity (NB-4 [23]): 26% | Activity (NB-4 [24]): 12% | Activity (NB-4 [25]): 11% | Activity (ATRA-resistant NB4-LR2 [26]): inactive | Activity (NB-4 [27]): 18.68% | Activity [28]: 27.7% | Activity [29]: 16%
